From the NIST ThermoML archive (doi:10.1007/s10765-005-5567-5)
Numbers after ± are expanded uncertainties.

Settings: Liquid; for thermal conductivity: Coaxial cylinder method; for viscosity: Capillary tube (Ostwald / Ubbelohde) method

O [water]
Settings	thermal conductivity [W/m/K]	viscosity [mPa·s]
298.3 K, 100 kPa	0.607 ± 0.017	–
298.3 K, 10000 kPa	0.613 ± 0.017	–
298.3 K, 30000 kPa	0.623 ± 0.018	–
299.76 K, 100 kPa	–	0.8591 ± 0.027
299.76 K, 10000 kPa	–	0.8561 ± 0.027
299.76 K, 30000 kPa	–	0.8551 ± 0.027
313.1 K, 100 kPa	0.629 ± 0.018	–
313.1 K, 10000 kPa	0.634 ± 0.018	–
313.1 K, 30000 kPa	0.644 ± 0.018	–
315.62 K, 100 kPa	–	0.6245 ± 0.02
315.62 K, 10000 kPa	–	0.6234 ± 0.02
315.62 K, 30000 kPa	–	0.6292 ± 0.02
328.37 K, 100 kPa	–	0.5 ± 0.016
328.37 K, 10000 kPa	–	0.503 ± 0.016
328.37 K, 30000 kPa	–	0.5071 ± 0.016
333.3 K, 100 kPa	0.651 ± 0.018	–
333.3 K, 10000 kPa	0.656 ± 0.018	–
333.3 K, 30000 kPa	0.666 ± 0.019	–
347.95 K, 100 kPa	–	0.3761 ± 0.012
347.95 K, 10000 kPa	–	0.3803 ± 0.012
347.95 K, 30000 kPa	–	0.3872 ± 0.012
352.9 K, 100 kPa	0.667 ± 0.019	–
352.9 K, 10000 kPa	0.672 ± 0.019	–
352.9 K, 30000 kPa	0.682 ± 0.019	–
363.4 K, 100 kPa	0.673 ± 0.019	–
363.4 K, 10000 kPa	0.678 ± 0.019	–
363.4 K, 30000 kPa	0.689 ± 0.019	–
375.85 K, 10000 kPa	–	0.2772 ± 0.0087
375.85 K, 30000 kPa	–	0.2833 ± 0.0089
393.1 K, 10000 kPa	0.689 ± 0.019	–
393.1 K, 30000 kPa	0.702 ± 0.02	–
403.95 K, 10000 kPa	–	0.2131 ± 0.0067
403.95 K, 30000 kPa	–	0.2181 ± 0.0068
423.3 K, 10000 kPa	0.691 ± 0.019	–
423.3 K, 30000 kPa	0.704 ± 0.02	–
431.43 K, 10000 kPa	–	0.1738 ± 0.0054
431.43 K, 30000 kPa	–	0.1786 ± 0.0056
448.7 K, 10000 kPa	0.685 ± 0.019	–
448.7 K, 30000 kPa	0.699 ± 0.02	–
474.3 K, 10000 kPa	0.672 ± 0.019	–
474.3 K, 30000 kPa	0.689 ± 0.019	–
476.4 K, 10000 kPa	–	0.1326 ± 0.0042
476.4 K, 30000 kPa	–	0.1375 ± 0.0043
499.3 K, 10000 kPa	0.652 ± 0.018	–
499.3 K, 30000 kPa	0.672 ± 0.019	–
502.75 K, 10000 kPa	–	0.1189 ± 0.0038
502.75 K, 30000 kPa	–	0.1239 ± 0.0039
523.4 K, 10000 kPa	0.624 ± 0.018	–
523.4 K, 30000 kPa	0.649 ± 0.018	–
524.75 K, 10000 kPa	–	0.1081 ± 0.0035
524.75 K, 30000 kPa	–	0.1132 ± 0.0036
548.4 K, 10000 kPa	0.591 ± 0.017	–
548.4 K, 30000 kPa	0.622 ± 0.018	–
549.5 K, 10000 kPa	–	0.0961 ± 0.0031
549.5 K, 30000 kPa	–	0.1011 ± 0.0032
573.5 K, 10000 kPa	0.547 ± 0.015	–
573.5 K, 30000 kPa	0.588 ± 0.017	–
574.54 K, 10000 kPa	–	0.0851 ± 0.0028
574.54 K, 30000 kPa	–	0.0918 ± 0.003
